Measured values as given in patent US6541193B2, “Screening the activity of drugs for central nervous system (CNS)” (Council of Scientific & Industrial Research, priority 2001, dated 2003).

System: Sh^5eag^1 mutant flies
Assay: Recovery time from diethyl ether anesthesia in flies fed drug in food
Assay type: in vivo, Drosophila melanogaster
Conditions: Sh^5eag^1 males
Protocol: Standard Drosophila manipulation methods were followed. Cultures were grown on a medium containing maize powder, sugar, yeast and Nipagin. Flies were maintained and further manipulated at room temperature. Experimental conditions were kept identical. The double mutant Sh^5eag^1 was generated using standard methods of Drosophila genetics.
Equal number of Sh^5eag^1 males, varying in age between 6-9 days, were treated in 25×100 mm glass vials with either normal food (NF) or food containing 1 mg/ml of phenobarbital sodium (PS; NF+PS) for 5 days. Twenty males were treated in each vial. Flies were first anesthesized with ether and healthy looking individuals shifted to 10 empty vials in such a way that each vial received two flies, one from each treatment. Before shifting, flies from one of the two treatments were marked on their wings for the purpose of identification. Flies were allowed to recover fully. After an hour, each fly pair was subjected to the following test one by one. The two flies, inside a vial with 800 mg of cotton plug, were simultaneously anesthetized by pouring 0.2 ml of diethyl ether on to the plug. After about 1.5 min, during which the vial was gently shaken continuously so that the flies remained at the bottom throughout, the two individuals were immediately shifted to two fresh empty vials. Time at this point was considered 0 min. […]

## CCC1(c2ccccc2)C(=O)NC(=O)NC1=O [PS, phenobarbital sodium]
1 mg/ml in food for 5 days, vs normal food
  effect on recovery from ether anesthesia: delays recovery from ether anesthesia
Food containing 1 mg/ml for 5 days, diethyl ether anesthesia, NF control 2.4±0.44 min, p<0.02
  recovery time (time to first stand up on legs after etherisation): 7.2 ± 1.78 min
